Assay results reported in patent US10064871B2, “Methods of treating skin disorders” (Biomimetix JV, LLC, priority 2014, dated 2018).

Experiments:
[1] = test system: plaque-forming psoriasis; experiment: Topical treatment of plaque-forming psoriasis on the legs of one subject; assay type: in vivo, human
Method: The therapeutic efficacy of MnTnBuOE-2-PyP^5+ when topically delivered was evaluated in a person with large areas of moderately severe plaque-forming psoriasis on upper and lower portions of both legs, with each involved area being approximately 10-20 cm in diameter. MnTnBuOE-2-PyP^5+ was formulated in LIPODERM® topical compounding cream base (available from the Professional Compounding Centers of America (PCCA)). at 0.01% and 0.1% concentrations producing a light brown cream which was applied b.i.d. to lesions on one extremity.

[2] = test system: psoriatic involvement of the scalp; experiment: Topical treatment of psoriatic involvement of the scalp of one subject; assay type: in vivo, human
From the text: A second subject with psoriatic involvement of the scalp of moderate severity was topically treated with MnTnBuOE-2-PyP^5+0.1% in LIPODERM® cream base twice daily for 3 weeks.

[3] = 0.01% and 0.1% in LIPODERM cream base, topical b.i.d., within 5 days

Manganese ortho tetrakis(N-n-butoxyethylpyridinium-2-yl)porphyrin [MnTnBuOE-2-PyP^5+]
time to marked improvement ([1]; 0.01% and 0.1% in LIPODERM cream base, topical b.i.d.): ≤ 5 days | area of remaining mild psoriatic reaction [1, 3]: decrease in the area of remaining mild psoriatic reaction | clinical irritation [1, 3]: marked decrease in clinical irritation | inflammation of lesions [1, 3]: decreased inflammation | efficacy of 0.01% compared with 0.1% cream ([1]; lesions treated with 0.01% and 0.1% in LIPODERM cream base): Equivalent efficacy | clinical improvement of psoriatic lesions ([1]; person, moderately severe plaque psoriasis of legs, 0.01% and 0.1% in LIPODERM cream base, topical b.i.d.): Marked improvement | return of the psoriatic reaction ([2]; 30 days after treatment stopped, 0.1% in LIPODERM cream base twice daily for 3 weeks): No return of the psoriatic reaction was observed | psoriatic scalp reaction after treatment ([2]; person, moderate severity, 0.1% in LIPODERM cream base, topical twice daily for 3 weeks): Complete resolution
